In US20180163177A1, “SERUM-FREE CULTURE MEDIUM AND METHOD FOR EXPANDING HEMATOPOIETIC STEM CELLS” (HealthBanks Biotech Co. Ltd., priority 2016, published 2018):

Test system: CD34+ HSC
Experiment: HSC expansion without feeder layer, in SF-UCM or concentrated SF-UCM with supplements, 12-day culture
Assay type: cell-based
Settings: day 12; no feeder layer; SCGM with 6 cytokines and hydrocortisone
Description: To test potential replacement for the feeder layers, we have tested a serum-free umbilical cord mesenchymal stem cell conditioned medium (SF-UCM) from UC-MSC. The serum-free umbilical cord mesenchymal stem cell conditioned medium is for example produced by the method described above, comprising the steps of: (a) culturing an umbilical cord mesenchymal stem cell in a serum-free cell culture medium (e.g. serum-free SCGM), and (b) isolating the conditioned cell culture medium.
In FIG. 3A and FIG. 3B, the positive control (PC) group is in IMDM as described above. The PC & S1 groups shown in FIG. 3A and 3B are grown as follows: At day 0, CD34+ HSC are thawed and co-cultured with UC-MSC feeder for 12 days with a cell density of 2.5×10^4 cells/ml, using 5% CS (cord serum)/IMDM medium containing the 6 cytokines and hydrocortisone for PC group or using SCGM containing 6 cytokines, hydrocortisone and 4 supplements for S1 group.
The S3-2 group was grown as follows: At day 0, CD34+ HSC are thawed and cultured in a culture medium mixture of 50% (v/v) SF-UCM and 50% (v/v) fresh SCGM containing 6 cytokines, hydrocortisone and 4 supplements with a cell density of 2.5×10^4 cells/ml for 12 days. The 6 cytokines, hydrocortisone and 4 supplements used herein are the same as described in example 2.
During 12-day culture, 50% culture medium is replenished as well as newly prepared UC-MSC feeder every 4 days, and CD34+ cells are maintained at a cell density of 2.5-5×10^4 cells/ml. At day 12, cumulative total cell expansion folds and CD34+ expansion folds are calculated.
The following experiment is performed to evaluate the effect of replacing feeder layers with SF-UCM or concentrated SF-UCM. The SF-UCM obtained in Example 3 was further concentrated with a 5-10 kDa cut-off membrane (preferably a 5 kDa cut-off membrane) to obtain 10 times concentrated (in volume) conditioned medium. The concentrated conditioned medium was filtered with a 0.22 μm filter, and the filtrate is collected to obtain the desired con. SF-UCM (abbreviated as “c-SF-UCM”). The results of replacing the feeder layers with SF-UCM or con.
In FIG. 4A and 4B, the PC, Sl, and S3-2 groups are the same as described in Example 3. The S3-3 group is as follows: At day 0, CD34+ HSC are thawed and cultured in a culture medium mixture of 5% (v/v) concentrated SF-UCM and 95% (v/v) SCGM containing 6 cytokines, 4 supplements, and hydrocortisone with a cell density of 2.5×10^4 cells/ml for 12 days. The 6 cytokines, hydrocortisone and 4 supplements used herein are the same as described in example 2. The above medium mixture is 50% replenished every 4 days and the cells (including CD34+ cells) are maintained at a cell density of 2.5-10×10^4 cells/ml. At day 12, cumulative total cell expansion folds and CD34+ (ISHAGE) expansion folds are calculated.
At day 0, CD34+ HSC are thawed and cultured in a corresponding culture medium in the following groups: (1) SCGM+SP+UCM group: a culture medium mixture of 5% (v/v) c-SF-UCM and 95% (v/v) SCGM containing 6 cytokines, 4 supplements and hydrocortisone; (2) SCGM+SP group: SCGM containing 6 cytokines, 4 supplements and hydrocortisone; (3) SCGM+UCM group: a culture medium mixture of 5% (v/v) c-SF-UCM and 95% (v/v) SCGM containing 6 cytokines and hydrocortisone; and (4) SCGM group: SCGM containing 6 cytokines and hydrocortisone. The 6 cytokines, hydrocortisone and 4 supplements used herein are the same as described in example 2.
The cells are cultured at a cell density of 2.5×10^4 cells/ml. The above medium mixture is 50-80% replenished every 4 days and the cells (including CD34+ cells) are maintained at a cell density of 2.5-10×10^4 cells/ml. At day 12, cumulative total cell expansion folds and CD34+ (ISHAGE) expansion folds are calculated.
In this experiment, the PC group and S3-3 group is the same as the previous examples. The culture medium is 50% replenished every 4 days, and cells are maintained at a cell density of 2.5-5×10^4 cells/ml. […]

Compound | CD34+ (ISHAGE) expansion folds | cumulative total cell expansion folds
transferrin (TF): transferrin, supplement used at 30 μg/ml | does not further increase the enhancement to any appreciable extent | does not further increase the enhancement to any appreciable extent
Cc1c(C)c2c(c(C)c1O)CC[C@@](C)(CCC[C@H](C)CCC[C@H](C)CCCC(C)C)O2 [vitamin E, α-tocopherol] | alone is also sufficient in supporting the expansion | alone is also sufficient in supporting the expansion
O=C1O[C@H]([C@@H](O)CO)C(O)=C1O [vitamin C, L-ascorbic acid] | alone can support the expansion | alone can support the expansion
